# Source: US7442394B2, “Combined effects of nutrients on proliferation of stem cells” (University of South Florida, priority 2005, dated 2008)
# B1: G-CSF: granulocyte-colony-stimulating factor, potent cytokine given i.p. to mice (protein, UniProt P09919 31-207, looked up)
# Granulocyte …: TPLGPASSLPQSFLLKCLEQVRKIQGDGAALQEKLVSECATYKLCHPEELVLLGHSLGIPWAPLSSCPSQALQLAGCLSQLHSGLFLYQGLLQALEGISPELGPTLDTLQLDVADFATTIWQQMEELGMAPALQPTQGAMPAFASAFQRRAGGVLVASHLQSFLEVSYRVLRHLAQP
# Tests used:
# [1] = system: Human bone marrow-derived CD34+ cells; test: MTT cell proliferation assay on CD34+ cells; assay type: cell-based; details: highest doses (BB 500 ng/mL, D3 5 μM, CH 20 μM, Ca 20 μM, GT 500 ng/mL), 72 hours
# Method: Human CD133+ cells were cultured for 23 days in the presence or absence of green tea (50 μg/ml).
# (§1) Cell cultures and MTT Assay. For cell proliferation analysis, human bone marrow cells, human CD34+cells or CD133 cells (BioWhittaker, Inc.) were cultured in 96 well plates (5×10^4/well) containing 100 μL of complete medium (RPMI 1640 medium supplemented with 5% fetal calf serum). These cells were treated for 72 hours with various extracts at a wide range of doses (8 ng/mL to 500 ng/mL) or molecular compounds (0.3125 μM to 20 μM). Five hours before the end of the treatment, 20 μL of MTT solution (MTT kit, Sigma) was added to each well. These plates were then incubated in a CO2 incubator at 37° C. for 5 hours and the cultured media removed with needle and syringe. 200 μL of DMSO was added to each well with pipetting up and down to dissolve crystals. These plates were put back into the 37° C. incubator for 5 minutes, transferred to plate reader and measured absorbance at 550 nm. Data were represented as relative percentage mean proliferation, defined as O.D. reading number of each treated cells normalized to control cells (in the absence of treatment).
# [2] = system: human bone marrow cells; test: MTT cell proliferation assay on human bone marrow cells; assay type: cell-based; details: for increase in proliferation, percent over control: 20 μM; for proliferative activity on human bone marrow cells in culture (screen): screened individually
# [3] = cited from earlier work
# [4] = Human pK study of carnosine after beef consumption (Park et al. 2005); assay type: in vivo, humans
# Method: In one example, carnosine is added to a supplement in a dose of 100 mg. A recent pK study in humans [Park Y J, Volpe S L, Decker, E A (2005) Quantitation of Carnosine in Humans Plasma after Dietary Consumption of Beef. J. Agric. […] With a Mw of 266 and assuming 5 liters of blood in a human, 250 mg carnosine produces a blood conc of […]. Assuming linear pK, 100 mg should produce a human blood concentration of […]. Doses tested ranged from 1-20 μM, effect was still increasing at 20 μM. Thus, a dose as high as 620 may be helpful and still be within normal ranges for human consumption. A preferred effective range is about 10 mg to 100 mg of carnosine based on extrapolation from results obtained.
# [5] = system: CD133+ (progenitor cells) collected from peripheral blood; test: MTT cell proliferation assay on CD133+ cells; assay type: cell-based, human; details: same conditions as CD34+ cells
# Method: as §1
# Promotion of CD133+ Cell Proliferation and Synergistic Properties of Extracts and Compounds. Some of the compounds and combinations with the greatest activity on proliferation of the bone marrow derived CD34+ cells were then used to treat CD133+ (progenitor cells) collected from peripheral blood and cultured under the same conditions as above.
# [6] = Vitamin D3 blood concentration in humans; assay type: in vivo; details: dose of 50 mcg
# Method: In one example, Vitamin D3 is used as 2000 IU's, which is equivalent to 50 μg. In humans, daily administration of 4000 IUs (100 mcg) results in a blood concentration of 100 nmol/L. There is no official RDA for vitamin D3 [R. Vieth, D. Fraser, Vitamin D insufficiency: no recommended dietary allowance exists for this nutrient, CMAJ 166 (2002) 1541-1542](4). According to a conservative report of the Food and Nutrition Board [R. Vieth (2004) Why the optimal requirement for Vitamin D3 is probably much higher than what is officially recommended for adults. Journal of Steroid Biochemistry & Molecular Biology 89-90 (2004) 575-579], the safety limit (no adverse effect level, NOAEL) of vitamin D3 intake in humans is 60 mcg (or 2400 IU) per day [Standing Committee on the Scientific Evaluation of Dietary Reference Intakes. Dietary Reference Intakes: Calcium, Phosphorus, Magnesium, Vitamin D, and Fluoride. National Academy Press, 1997]. After applying a margin of safety, the recommended upper limit is 50 mcg (2000 IUs) per day for intake by the general public [I. Munro, Derivation of tolerable upper intake levels of nutrients, Am. J. Clin. Nutr. 74 (2001) 865-867]. Clinical trials show no benefit from oral doses 20 mcg (800 IUs) or less [R. Vieth (2004) Why the optimal requirement for Vitamin D3 is probably much higher than what is officially recommended for adults. […]
# [7] = daily administration of 4000 IUs (100 mcg); cited from earlier work
# [8] = cited from earlier work; remark: listed apart in the source
# [9] = system: colony forming units (CFU-C's); test: HALO colony forming assay of bone marrow, spleen and mononuclear cells; assay type: in vivo, mice; details: 6 days of treatment
# Method: (§2) On day 7 cells were isolated and prepared for flow cytometry. The percentage of CD117/SCA-1 positive cells was analyzed. This represents a hematopoietic stem cells. […] On day 7 cells were isolated and plated in the colony forming assay (see specific methods) for 5 days. ATP was detected by luciferase assay and luminescence was converted to ATP units with use of a standard curve. […] Although a statistically small sample, the effects show a cytokine like effect to reduce progenitors in the bone marrow.
# (§3) In vivo studies. […] To date we have treated 3 mice with (Blueberry Extract: 3 mg/kg/day; Carnosine: 10 mg/kg/day; Vitamin D3:1 mg/kg/day; green tea extract: 3 mg/kg/day) or water by gavage, in addition 3 mice have been treated with G-CSF […] i.p. Initial studies were done at 6 days of treatment as this is an optimal time for G-CSF to show mobilization of progenitors into the peripheral blood. Bone marrow, spleen and peripheral blood mononuclear cells were examined by flow cytometry with SCA-1 and CD117, the presence of both markers is indicative of multipotent hematopoietic stem cells. […] The three fractions were also assessed in the HALO™ colony forming assay. […] This effect is consistent with the literature and thus increases our confidence in this version of the CFU-C assay.
# [10] = system: CD117/SCA-1 positive cells (hematopoietic stem cells); test: Flow cytometry of CD117/SCA-1 positive cells after 6 days of treatment; assay type: in vivo, mice; details: day 7
# Method: as §2, §3
molecule,measurement,setting,value
Catechin,"increase in proliferation, percent over control (FIG. 2B)",[1],24.8±5.0%
same,"increase in proliferation, percent over control",[2]; 72 hours,34.8±5.2%
same,proliferative activity on human bone marrow cells in culture (screen),[2],increase cell proliferation
NCCC(=O)N[C@@H](Cc1cnc[nH]1)C(=O)O [Carnosine],plasma conc.,[3]; 250 mg carnosine (two beef patties) ingested,33000 ng/mL
same,time of plasma peak,[3]; 250 mg carnosine ingested,3 h
same,time of return to baseline,[3]; 250 mg carnosine ingested,5 h
same,"increase in proliferation, percent over control (FIG. 2B)",[1],11.05±2.1%
same,"increase in proliferation, percent over control",[2]; 72 hours,26.6±6.0%
same,proliferative activity on human bone marrow cells in culture (screen),[2],increase cell proliferation
same,human blood concentration,"[4]; 100 mg, assuming linear pK",248 µM
same,concentration at 3 h,"[4]; human, whole blood, oral, 250 mg carnosine, Mw of 266, assuming 5 liters of blood, read-out: blood conc",620 µM
same,"increase in proliferation, percent over control (FIG. 2C)",[5],16.9±3.3%
C=C1CC[C@H](O)C/C1=C/C=C1\CCC[C@]2(C)[C@@H]([C@H](C)CCCC(C)(C)O)CC[C@@H]12 [25-Hydroxycholecalciferol],plasma concentration,[6],0.05 µM
same,"increase in proliferation, percent over control (FIG. 2B)",[1],6.9±2.6%
same,blood concentration,[7],0.1 µM
same,"proliferation, percent over control","[2]; 5 μM, 72 hours",14.8±3.3%
same,proliferative activity on human bone marrow cells in culture (screen),[2],increase cell proliferation
same,recommended upper limit for intake by the general public,[8]; after applying a margin of safety,50 mcg per day
same,safety in clinical trials,[8]; human oral doses of 1000 IUs to 4000 IUs (100 mcg/day),completely safe
same,"safety limit (no adverse effect level, NOAEL) of intake",[8]; humans,60 mcg per day
same,"increase in proliferation, percent over control (FIG. 2C)",[5],7.6±1.39%
"hGM-CSF: positive control, human granulocyte colony-stimulating factor","increase in proliferation, percent over control (FIG. 2B)",[1],48.3±7.4%
same,"increase in proliferation, percent over control (FIG. 2A)","[2]; combination experiment, BB 500 ng/mL, D3 5 μM, CH 20 μM, Ca 20 μM, GT 500 ng/mL, 72 hours",48.3±7.4%
same,"proliferation, percent over control","[2]; highest dose of 100 ng/ml, 72 hours",44.5±8.1%
same,"increase in proliferation, percent over control (FIG. 2C)",[5],21.11±2.9%
O=C(O[C@@H]1Cc2c(O)cc(O)cc2O[C@@H]1c1cc(O)c(O)c(O)c1)c1cc(O)c(O)c(O)c1 [EGCG],proliferative activity on human bone marrow cells in culture (screen),[2],did not show high activity
B1,colony forming units (CFU-C's),[9]; bone marrow fraction,decrease
same,colony forming units (CFU-C's),"[9]; bone marrow fraction, listed as GCSF",reduce
same,colony forming units (CFU-C's),[9]; spleen and MNC fractions,increase
same,CD117/SCA-1 positive cells,[10]; BM population,decrease
same,CD117/SCA-1 positive cells,"[10]; all 3 cell fractions (BM, spleen, MNC)",small increase
same,CD117/SCA-1 positive cells,[10]; spleen and MNC populations,trend for an increase
